ChEMBL document CHEMBL1201862, “PubChem BioAssay data set” (2004)
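Tested at 5 concentrations; 48 h exposure; 96-well plates; endpoints linearly interpolated, else capped at highest concentration. GI50 is the concentration that inhibits growth by half.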 The source made the active and inactive calls. Rule as the data show it: active = GI50 up to about 1.1 µM and inactive = higher.

Key:
Assay in all cases: NCI-60 cell line screen, 48 h
[1] = system: A498
[2] = system: A549
[3] = system: ACHN
[4] = system: CAKI-1
[5] = system: CCRF-CEM
[6] = system: COLO 205
[7] = system: DLD-1
[8] = system: DMS-114
[9] = system: DMS-273
[10] = system: EKVX
[11] = system: HCC 2998
[12] = system: HCT-116
[13] = system: HCT-15
[14] = system: HL-60
[15] = system: HOP-62
[16] = system: HOP-92
[17] = system: HT-29
[18] = system: IGROV-1
[19] = system: K562
[20] = system: KM-20L2
[21] = system: KM12
[22] = system: LXFL 529
[23] = system: M14
[24] = system: M19-MEL
[25] = system: MOLT-4
[26] = system: Malme-3M
[27] = system: NCI-H23
[28] = system: NCI-H460
[29] = system: NCI-H522
[30] = system: OVCAR-3
[31] = system: OVCAR-4
[32] = system: OVCAR-5
[33] = system: OVCAR-8
[34] = system: RPMI-8226
[35] = system: RXF 393
[36] = system: SF-268
[37] = system: SF-295
[38] = system: SF-539
[39] = system: SK-MEL-28
[40] = system: SK-MEL-2
[41] = system: SK-MEL-5
[42] = system: SK-OV-3
[43] = system: SN12C
[44] = system: SNB-19
[45] = system: SNB-75
[46] = system: SNB-78
[47] = system: SR
[48] = system: SW-620
[49] = system: TK-10
[50] = system: U-251
[51] = system: UACC-257
[52] = system: UACC-62
[53] = system: UO-31
[54] = system: XF498

CON(C)C(=O)C(Cc1ccccc1)NC(=O)OCc1ccccc1 (centres undefined)
GI50 [1]: > 100 µM (inactive)
GI50 [2]: > 100 µM (inactive)
GI50 [3]: > 100 µM (inactive)
GI50 [4]: > 100 µM (inactive)
GI50 [5]: > 100 µM (inactive)
GI50 [6]: > 100 µM (inactive)
GI50 [7]: > 100 µM (inactive)
GI50 [8]: 58.9 µM (inactive)
GI50 [9]: > 100 µM (inactive)
GI50 [10]: > 100 µM (inactive)
GI50 [11]: > 100 µM (inactive)
GI50 [12]: > 100 µM (inactive)
GI50 [13]: > 100 µM
GI50 [14]: > 100 µM (inactive)
GI50 [15]: > 100 µM (inactive)
GI50 [16]: > 100 µM (inactive)
GI50 [17]: > 100 µM (inactive)
GI50 [18]: > 100 µM (inactive)
GI50 [19]: 77.1 µM (inactive)
GI50 [20]: > 100 µM (inactive)
GI50 [21]: > 100 µM (inactive)
GI50 [22]: > 100 µM (inactive)
GI50 [23]: > 100 µM (inactive)
GI50 [24]: > 100 µM (inactive)
GI50 [25]: > 100 µM (inactive)
GI50 [26]: 75.5 µM (inactive)
GI50 [27]: > 100 µM (inactive)
GI50 [28]: > 100 µM (inactive)
GI50 [29]: 58.6 µM (inactive)
GI50 [30]: > 100 µM (inactive)
GI50 [31]: > 100 µM (inactive)
GI50 [32]: > 100 µM (inactive)
GI50 [33]: > 100 µM (inactive)
GI50 [34]: > 100 µM (inactive)
GI50 [35]: > 100 µM (inactive)
GI50 [36]: > 100 µM (inactive)
GI50 [37]: > 100 µM (inactive)
GI50 [38]: > 100 µM (inactive)
GI50 [39]: > 100 µM (inactive)
GI50 [40]: > 100 µM (inactive)
GI50 [41]: 97.7 µM (inactive)
GI50 [42]: > 100 µM (inactive)
GI50 [43]: > 100 µM (inactive)
GI50 [44]: > 100 µM (inactive)
GI50 [45]: 33.3 µM (inactive)
GI50 [46]: > 100 µM (inactive)
GI50 [47]: > 100 µM (inactive)
GI50 [48]: > 100 µM (inactive)
GI50 [49]: > 100 µM (inactive)
GI50 [50]: > 100 µM (inactive)
GI50 [51]: 86.1 µM (inactive)
GI50 [52]: > 100 µM (inactive)
GI50 [53]: 71.4 µM (inactive)
GI50 [54]: 64.3 µM (inactive)
